Patent publication US8921426B2, “Cationic bis-urea compounds as effective antimicrobial agents” (International Business Machines Corporation, priority 2012, dated 2014)
In brackets after ≈: the same amount, converted by molar mass. Entries after “also recorded” stand apart in the source; their conditions may differ. Like-named read-outs stand apart in the source and are kept apart here.

Assays:
[1] = tested on: primary human dermal fibroblasts; test: MTT cytotoxicity assay; type: cell-based; conditions: 24 hours at 37° C.
Method: The cytotoxicity tests of the cationic bis-urea compounds were performed in primary human fibroblasts using MTT assay. The cells were cultured in DMEM supplemented with 10% FBS, 5% penicillin, 2 mM L-glutamine (Sigma) and incubated at 37° C., 5% CO2. The cells were seeded onto 96-well plates at a density of 10,000 cells per well and incubated for one day. Cationic compounds were diluted with the growth medium to give final concentrations of 31.25, 62.5, 125, 250.0, 500.0, 1000.0 and 2500.0 mg/L. The media were replaced with 100 microliters of the pre-prepared samples. The plates were then returned to the incubator and maintained in 5% CO2 at 37° C. for 24 hours. Fresh growth media (100 microliters) containing 10% MTT solution (5 mg/mL) were used to replace the mixture in each well after 24 hours. The plates were then returned to the incubator and maintained in 5% CO2 at 37° C. for a further 4 hours. The growth medium and excess MTT in each well were then removed. DMSO (150 microliters) was then added to each well to dissolve the internalized purple formazan crystals. An aliquot of 100 microliters was taken from each well and transferred to a fresh 96-well plate. Each sample was tested in eight replicates per plate. The plates were then assayed at 550 nm and 690 nm. The absorbance readings of the formazan crystals were taken to be the absorbance at 550 nm minus the absorbance at 690 nm. The results were expressed as a percentage of the absorbance of the blank control.

[2] = tested on: Bacillus subtilis (B. subtilis) (ATCC No. 23857); test: MIC, broth microdilution, B. subtilis; type: cell-based; conditions: ATCC23857, TSB, 37° C., 18 hours
Method: (§1) The minimum inhibitory concentration (MIC) of each of the cationic compounds was measured using a broth microdilution method. The cationic compound were dissolved in DI water at a concentration of 2500 mg/L. The samples were further diluted to 31.25, 62.5, 125, 250.0, 500.0 and 1000.0 mg/L using TSB or YMB. The B. subtilis cells were grown in TSB overnight in an incubator at 37° C. The C. albicans cells were grown in YMB at room temperature. The optical density of the bacterial solution was adjusted to OD600 nm=0.07 to 0.08 by the addition of TSB or YMB. This bacterial solution was further diluted 1000 times. Cationic compound solution (100 microliters) was transferred to each well of 96 well plates (NUNC), followed by the addition of 100 microliters of the bacterial solution. TSB or YMB was used as control. B. subtilis cells were incubated at 37° C. overnight in TSB. C. albicans cells were cultured in YMB at room temperature. C. neoformans were inoculated in MHB broth and grew overnight at 37° C. with shaking at 250 rpm. The optical density readings of bacterial solutions were monitored by measuring OD600nm in predetermined times (0 hours and 18 hours for B. subtilis while 0 hours and 24 hours for C. albicans). The assay was performed in four replicates for each sample and the experiments were repeated at least three times.

B. subtilis = test: Killing efficiency, spread plate method, B. subtilis; type: cell-based, Bacillus subtilis; conditions: 18 hour treatment
Method: (§2) Antimicrobial activities of cationic compounds were also tested through a spread plate method. B. subtilis and C. albicans were treated at half MIC, MIC and 2×MIC concentrations of cationic compounds. At predetermined time (18 hours for B. subtilis and 24 hours for C. albicans and C. neoformans), microbial suspensions were withdrawn, diluted sequentially, and then plated on 1.5% lysogeny broth (LB) agar plates. The plates were incubated for 24 hours at 37° C. (48 hours at room temperature for C. albicans). Microbial colonies were formed and counted. The results are expressed as % kill=(cell count of control−survivor count of samples)/cell count of control×100. The experiments were performed in triplicate and were repeated three times.

[3] = Zeta potential (Zetasizer); type: physicochemical; conditions: cationic bis-urea compounds, 1000 mg/L; method names PBS pH 7.4 and DI water, table does not say which
Method: The zeta potential of the cationic compounds in phosphate-buffered saline (PBS, pH 7.4) and deionized (DI) water was measured by Zetasizer 3000 HAS (Malvern Instrument Ltd., Malvern, UK) equipped with a He—Ne laser beam at […] (scattering angle: 90°). The concentration of cationic compounds was 1000 mg/L. Each measurement was repeated 5 times. An average value was obtained from the five measurements.

[4] = tested on: Candida albicans (C. albicans) (ATCC No. 10231); test: MIC, broth microdilution, C. albicans; type: cell-based; conditions: for MIC: Candida albicans, read-out: MIC C. albicans
Method: as §1

[5] = Critical micelle concentration (CMC) by intensity of scattered light; type: physicochemical; conditions: cationic bis-urea compounds; stock diluted using DI water
Method: The intensity of scattered light (in kilo counts per second) was recorded as a function of cationic compounds concentration ranging from 0.0 to 250.0 mg/L. A stock polymer solution was prepared with a concentration of 1000.0 mg/L, and diluted using DI water to various concentrations. The intensity of scattered light was plotted against polymer concentration. The CMC value was taken from the intersection of the tangent to the curve at the inflection with the horizontal tangent through the points at low concentrations.

C. albicans = test: Killing efficiency, spread plate method, C. albicans; type: cell-based, Candida albicans; conditions: for killing of C. albicans cells: 24 hour treatment
Method: as §2

rat red blood cells = test: Hemolysis of rat red blood cells; type: cell-based; conditions: one hour at 37° C.
Method: Fresh rat blood cells were washed with PBS three times. 100 microliters of red blood cell suspension in PBS (4% in volume) was introduced to each well of a 96 well-plate and 100 microliters of cationic compound solution was then added to the well. PBS and TRITON X-100 (0.2%) were used as control. The plates were incubated for one hour at 37° C. The 96 well plates were centrifuged at 4000 rpm for 5 minutes. Aliquots (100 microliters) of the supernatant were transferred to a new 96 well plate. Hemoglobin release was measured at 576 nm using a microplate reader (TECAN). The red blood cells in PBS were used as a negative control. Absorbance of wells with red cells lysed with 0.2% TRITON X-100 was taken as 100% hemolysis. Percentage of hemolysis was calculated using the following formula (OD576nm=optical density at 576 nm): Hemolysis (%)=[(OD576nm of the sample−OD576nm of PBS)/(OD576nm of 0.2% TRITON X-100−OD576nm of PBS)×100. The data were expressed as mean and standard deviation of four replicates and the tests were repeated three times.

[6] = tested on: Cryptococcus neoformans (C. neoformans); test: MIC, broth microdilution, C. neoformans; type: cell-based; conditions: for MIC: Cryptococcus neoformans, read-out: MIC C. neoformans
Method: as §1

C. neoformans cells = test: TEM of C. neoformans cells before and after treatment; type: cell-based, Cryptococcus neoformans; conditions: 8 hours, FIG. 7B
Method: The morphology of the C. neoformans before and after treatment with cationic compound CBU2 was observed under a JEM-1230 TEM (JEOL, Japan) using an acceleration voltage of 80 keV. The C. neoformans (1.5 mL) was incubated with 0.5 mL of CBU2 solution for 8 hours. The solution was then centrifuged at 4000 rpm for 10 minutes, and the supernatant removed. The […] was washed with PBS twice and then fixed in formalin solution containing 2.5% glutaraldehyde overnight. The sample was then washed by PBS three times (15 minutes each) and then post fixed with 1% OsO4 in phosphate buffer (pH 7.0) for one hour. The fixed samples were washed in phosphate buffer three times (15 minutes each), followed by dehydration in a graded ethanol series. The samples were incubated with the mixtures of acetone and Spun resin (1:1 in volume) for one hour at room temperature, and then transferred to 1:3 mixture of acetone and Spun resin for 3 hours, and to Spun resin overnight. Ultrathin sections (70-90 nm) were cut using a Reichert-Jung Ultracut E ultramicrotome, and post-stained with uranyl acetate and lead citrate for 15 minutes each prior to TEM observations. Spun resin can be prepared from a kit by combining 3,4 epoxy cyclohexyl methyl 3,4 epoxy cyclohexyl carboxylate (ERL-4221 resin from Polysciences) (10.0 g), nonenylsuccinic anhydride (26.0 g), and dimethylaminoethanol (0.4 g).

[7] = ATCC10231, YMB, room temperature, 24 hours
[8] = 24 hours, 1.0 and 2.0 times the MIC (FIG. 4A)
[9] = up to a concentration of 1000 mg/L

| Compound | MIC [2] [µg/mL] | MIC [4, 7] [µg/mL] | MIC ([6]; MHB broth, 37° C.) [µg/mL] | cell viability of primary human fibroblasts ([1]; up to a concentration of 250 mg/L) | killing of B. subtilis cells (B. subtilis; about 500 mg/L) [%] | Zeta Potential [3] [mV] | CMC [5] [mg/L] | killing of C. albicans cells (C. albicans; about 500 mg/L) [%] | HC50 (concentration that induces 50% hemolysis of rat red blood cells) (rat red blood cells) | killing of B. subtilis cells (B. subtilis; about 125 mg/L) [%] | activity against C. neoformans (in words) [6] | activity against C. albicans (in words) [4] | killing efficiency against C. albicans (C. albicans; 31.2 mg/L, by 1 hour of incubation (FIG. 5)) [%] | killing efficiency against C. albicans (C. albicans; [8]) [%] | killing of C. albicans cells (C. albicans; about 31.2 mg/L) [%] | cell membrane morphology after treatment (TEM) (C. neoformans cells) | cell viability of primary human fibroblasts [1, 9] | killing of C. albicans cells (C. albicans; about 125 mg/L) [%] | MIC [6] [µg/mL] | MIC ([4]; ATCC10231, 24 h) [µg/mL] |
| --- | --- | --- | --- | --- | --- | --- | --- | --- | --- | --- | --- | --- | --- | --- | --- | --- | --- | --- | --- | --- |
| C[N+](C)(C)CCCNC(=O)Nc1ccc(CNC(=O)c2ccc(C(=O)NCc3ccc(NC(=O)NCCC[N+](C)(C)C)cc3)cc2)cc1.[I-].[I-] [CBU1] | 500 | 500 |  | About 60% | 100 | 47.0 | 170.0 | 99 | >>2500 mg/L |  |  |  |  |  |  |  |  |  |  |  |
| NCCNC(=O)Nc1ccc(CNC(=O)c2ccc(C(=O)NCc3ccc(NC(=O)NCCN)cc3)cc2)cc1 [CBU5] |  |  |  |  |  | 32.2 | 100.00 |  | >>1000 mg/L |  | highly active | highly active; also recorded: more active |  |  |  |  | About 80% |  | 125 (≈ 229 µM) | 62.5 (≈ 114 µM) |
| NCCCCCCNC(=O)Nc1ccc(CNC(=O)c2ccc(C(=O)NCc3ccc(NC(=O)NCCCCCCN)cc3)cc2)cc1 [CBU6] |  |  |  |  |  | 35.3 | 15.0 |  | >>1000 mg/L |  | highly active | highly active; also recorded: more active |  |  |  |  | About 80% |  | 62.5 (≈ 94.9 µM) | 31.2 (≈ 47.4 µM) |
| NCc1ccc(CNC(=O)Nc2ccc(CNC(=O)c3ccc(C(=O)NCc4ccc(NC(=O)NCc5ccc(CN)cc5)cc4)cc3)cc2)cc1 [CBU7] |  |  |  |  |  | 45.1 | 12.0 |  | >>1000 mg/L |  | highly active | highly active; also recorded: more active |  |  |  |  |  |  | 31.2 (≈ 44.6 µM) | 31.2 (≈ 44.6 µM) |

More lines, main results first:

| MIC [2] [µg/mL] | MIC [4, 7] [µg/mL] | MIC ([6]; MHB broth, 37° C.) [µg/mL] | Compound | cell viability of primary human fibroblasts ([1]; up to a concentration of 250 mg/L) | killing of B. subtilis cells (B. subtilis; about 500 mg/L) [%] | Zeta Potential [3] [mV] | CMC [5] [mg/L] | killing of C. albicans cells (C. albicans; about 500 mg/L) [%] | HC50 (concentration that induces 50% hemolysis of rat red blood cells) (rat red blood cells) | killing of B. subtilis cells (B. subtilis; about 125 mg/L) [%] | activity against C. neoformans (in words) [6] | activity against C. albicans (in words) [4] | killing efficiency against C. albicans (C. albicans; 31.2 mg/L, by 1 hour of incubation (FIG. 5)) [%] | killing efficiency against C. albicans (C. albicans; [8]) [%] | killing of C. albicans cells (C. albicans; about 31.2 mg/L) [%] | cell membrane morphology after treatment (TEM) (C. neoformans cells) | cell viability of primary human fibroblasts [1, 9] | killing of C. albicans cells (C. albicans; about 125 mg/L) [%] | MIC [6] [µg/mL] | MIC ([4]; ATCC10231, 24 h) [µg/mL] |
| --- | --- | --- | --- | --- | --- | --- | --- | --- | --- | --- | --- | --- | --- | --- | --- | --- | --- | --- | --- | --- |
| 125 (≈ 207 µM) | 31.2 (≈ 51.8 µM) | 62.5 (≈ 104 µM) | NCCCCNC(=O)Nc1ccc(CNC(=O)c2ccc(C(=O)NCc3ccc(NC(=O)NCCCCN)cc3)cc2)cc1 [CBU2] |  |  | 36.7 | 20.0 |  | >>1000 mg/L | 100 | highly active | highly active; also recorded: more active | 100 | 100 | 100 | ruptured and show loss of intracellular material |  |  |  |  |
| 125 | 250 |  | C[N+](C)(C)CCCNC(=O)Nc1ccc(NC(=O)c2ccc(C(=O)Nc3ccc(NC(=O)NCCC[N+](C)(C)C)cc3)cc2)cc1.[I-].[I-] [CBU3] |  |  | 32.8 | 110.0 |  | >>2500 mg/L |  |  |  |  | 100 |  |  | More than 80% | 99.9 |  |  |
